Experimental data taken from patent US10208033B2, “β-carboline, dihydro-β-carboline and tetrahydro-β-carboline alkaloid derivatives and preparation methods same and use in aspects of preventing and treating plant viruses, fungicides and insecticides” (NANKAI UNIVERSITY, priority 2013, dated 2019).
Where two headings read alike, the source gives them in different places.

Tests used:
[1] = test system: tobacco mosaic virus (TMV); assay: Anti-TMV in vitro effect (half-leaf soaking); type: cell-based, tobacco mosaic virus (host Nicotiana tabacum L.cv.Xanthi NN)
[2] = test system: tobacco mosaic virus (TMV); assay: Anti-TMV in vivo inactivation; design: species or system tobacco mosaic virus (host Nicotiana tabacum L.cv.Xanthi NN)
[3] = test system: tobacco mosaic virus (TMV); assay: Anti-TMV in vivo therapeutic effect; design: species or system tobacco mosaic virus (host Nicotiana tabacum L.cv.Xanthi NN)
[4] = test system: tobacco mosaic virus (TMV); assay: Anti-TMV in vivo protective effect; design: species or system tobacco mosaic virus (host Nicotiana tabacum L.cv.Xanthi NN)
cucumber fusarium wilt = assay: Fungicidal (bactericidal) activity in vitro, PDA colony diameter; type: cell-based; conditions: 50 mg/kg
Cercospora arachidicola = assay: as above; type: cell-based; conditions: 50 mg/kg
Macrophoma kawatsukai = assay: as above; type: cell-based; conditions: 50 mg/kg
Alternaria solani = assay: as above; type: cell-based; conditions: 50 mg/kg
Fusarium graminearumt = assay: microbe, parasite or virus in culture; type: cell-based; conditions: 50 mg/kg
potato late blight = assay: microbe, parasite or virus in culture; type: cell-based
Sclerotinia scleotiorum = assay: Fungicidal (bactericidal) activity in vitro, PDA colony diameter; type: cell-based; conditions: 50 mg/kg
Botrytis cinerea = assay: as above; type: cell-based; conditions: 50 mg/kg
Rhizoctonia solani = assay: as above; type: cell-based; conditions: 50 mg/kg
Phytophthora capsici = assay: as above; type: cell-based; conditions: 50 mg/kg
Fusarium fujikuroi = assay: as above; type: cell-based; conditions: 50 mg/kg
Rhizoctonia cereali = assay: as above; type: cell-based; conditions: 50 mg/kg
Bipolaria maydis = assay: organism not typed; type: cell-based; conditions: 50 mg/kg
[5] = test system: Colletotrichum orbiculare; assay: Fungicidal (bactericidal) activity in vitro, PDA colony diameter; type: cell-based; conditions: 50 mg/kg
armyworms = type: in vivo; conditions: concentration 600 mg/kg
cotton bollworms = assay: whole plant or invertebrate
Protocol: Experimental method of cotton bollworms: feed and drug mixing method: measure 3 mL of prepared solution and add it to about 27 g of newly prepared feed, thereby obtaining needed concentration through dilution by 10 times.

mosquito larvae = assay: whole plant or invertebrate
How it was run: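 Early fourth-instar Culex pipiens pallens larvae from an indoor colony, 10 per beaker, exposed to test compound at 5 ppm in water, diluted from a 1000 ppm acetone mother solution. Blank: water containing 0.5 mL test solvent.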

Row | SMILES | Relative inhibition rate (%) In vitro activity ([1]; treatment dose 100 μg/mL) | Relative inhibition rate (%) In vitro activity ([1]; treatment dose 500 μg/mL) | Relative inhibition rate (%) In vivo inactivation ([2]; treatment dose 100 μg/mL) | Relative inhibition rate (%) In vivo inactivation ([2]; treatment dose 500 μg/mL) | Relative inhibition rate (%) In vivo therapy ([3]; treatment dose 100 μg/mL) | Relative inhibition rate (%) In vivo therapy ([3]; treatment dose 500 μg/mL) | Relative inhibition rate (%) In vivo protection ([4]; treatment dose 100 μg/mL) | Relative inhibition rate (%) In vivo protection ([4]; treatment dose 500 μg/mL) | Bactericidal activity (%) Cucumber fusarium wilt (cucumber fusarium wilt) | Bactericidal activity (%) Cercospora arachidicola (Cercospora arachidicola) | Bactericidal activity (%) Macrophoma kawatsukai (Macrophoma kawatsukai) | Bactericidal activity (%) Alternaria solani (Alternaria solani) | Bactericidal activity (%) Fusarium graminearumt (Fusarium graminearumt) | Bactericidal activity (%) potato late blight (potato late blight) | Bactericidal activity (%) Sclerotinia scleotiorum (Sclerotinia scleotiorum) | Bactericidal activity (%) Botrytis cinerea (Botrytis cinerea) | Bactericidal activity (%) Rhizoctonia solani (Rhizoctonia solani) | Bactericidal activity (%) Phytophthora capsici (Phytophthora capsici) | Bactericidal activity (%) Fusarium fujikuroi (Fusarium fujikuroi) | Bactericidal activity (%) Rhizoctonia cereali (Rhizoctonia cereali) | further results
1 | C[C@@H]1N[C@H](C(=O)NN=Cc2ccc3c(c2)OCCO3)Cc2c1[nH]c1ccccc21 [Ic-13] | 19.8% | 46.5% | 15.2% | 43.6% | 18.6% | 48.1% | 10.3% | 46% | 22.7% | 45.5% | 66.7% | 52.4% | 30.8% | 30.4% | 21.2% | 66.7% | 44.4% | 84.8% | 47.1% | 89.2% | Bactericidal activity (%) Bipolaria maydis (Bipolaria maydis): 52.0%; Bactericidal activity (%) Colletotrichum orbiculare [5]: 72.0%; Armyworm Mortality (%) (armyworms): 30%; Cotton bollworm Mortality (%) (cotton bollworms; concentration 600 mg/kg): 15%; Mosquito larvae Mortality (%) (mosquito larvae; concentration 10 mg/kg, 24 h): 60%; Corn borer Mortality (%) (corn borers; concentration 600 mg/kg): 35%
2 | C[C@@H]1N[C@H](C(=O)NN=Cc2ccc3cc(O)ccc3c2)Cc2c1[nH]c1ccccc21 [Ic-14, (1S, 3S)—N′-(6-hydroxynaphthalene-2-methylene)-1-methyl-2,3,4,9-tetrahydropyridino [3,4-b] indol-3-formylhydrazine] | 0% | 40.9% | 16.9% | 45.6% | 8.2% | 43.9% | 0% | 47.8% | 19.2% | 47.1% | 77.8% | 30.0% | 10.3% | 44.0% | 88.2% | 72.7% | 28.9% | 84.2% | 28.6% | 86.3% | Bactericidal activity (%) Bipolaria maydis (Bipolaria maydis): 56.0%; Bactericidal activity (%) Colletotrichum orbiculare [5]: 48.1%; Armyworm Mortality (%) (armyworms): 40%; Cotton bollworm Mortality (%) (cotton bollworms; concentration 600 mg/kg): 35%; Mosquito larvae Mortality (%) (mosquito larvae; concentration 10 mg/kg, 24 h): 75%; Corn borer Mortality (%) (corn borers; concentration 600 mg/kg): 45%
3 | C[C@@H]1N[C@H](C(=O)NN=Cc2ccncc2)Cc2c1[nH]c1ccccc21 [Ic-15, (1S, 3S)—N′-(pyridine-4-methylene)-1-methyl-2,3,4,9-tetrahydropyridino [3,4-b] indol-3-formylhydrazine] | 0% | 36.6% | 8.8% | 43.4% | 12.9% | 39.6% | 0% | 37.5% | 23.1% | 35.3% | 52.8% | 15.0% | 27.6% | 24.0% | 64.7% | 36.4% | 23.7% | 28.9% | 21.4% | 66.7% | Bactericidal activity (%) Bipolaria maydis (Bipolaria maydis): 28.0%; Bactericidal activity (%) Colletotrichum orbiculare [5]: 29.6%; Armyworm Mortality (%) (armyworms): 15%; Cotton bollworm Mortality (%) (cotton bollworms; in vivo): 15%; Mosquito larvae Mortality (%) (mosquito larvae; in vivo): 30%; Corn borer Mortality (%) (corn borers; in vivo): 20%
4 | C[C@@H]1N[C@H](C(=O)NN=Cc2cccnc2)Cc2c1[nH]c1ccccc21 [Ic-16, (1S, 3S)—N′-(pyridine-3-methylene)-1-methyl-2,3,4,9-tetrahydropyridino [3,4-b] indol-3-formylhydrazine] | 0% | 33.3% | 11.2% | 41% | 5.7% | 36.9% | 0% | 33.6% | 38.5% | 41.2% | 83.3% | 15.0% | 62.1% | 52.0% | 35.3% | 54.5% | 39.5% | 26.3% | 50.0% | 80.4% | Bactericidal activity (%) Bipolaria maydis (Bipolaria maydis): 32.0%; Bactericidal activity (%) Colletotrichum orbiculare [5]: 40.7%; Armyworm Mortality (%) (armyworms): 20%; Cotton bollworm Mortality (%) (cotton bollworms; in vivo): 10%; Mosquito larvae Mortality (%) (mosquito larvae; in vivo): 40%; Corn borer Mortality (%) (corn borers; in vivo): 30%
